Experimental data: patent US9266814B2, “Use of nitrooxy organic molecules in feed for reducing methane emission in ruminants, and/or to improve ruminant performance” (DSM IP ASSETS B.V., priority 2010, dated 2016)
Where “and” joins values, the source holds several entries; their conditions need not be identical. Equal entries are not always repeated. Where two headings read alike, the source gives them in different places. Marks after values point to notes of the source that are not given here.

Assays:
[1] = test system: methanogenesis in rumen liquor; experiment: In vitro test for methane production (modified Hohenheim Forage value Test); format: cell-based; conditions: for inhibition at 0.5 % / inhibition at 2 % / inhibition at 0.005 % / inhibition at 0.01 % / inhibition at 0.05 % / inhibition at 0.1 % / inhibition at 1 %: read-out: effect on methanogenesis (%)
protozoa (18S rRNA) = format: in vivo, sheep
[2] = test system: volatile fatty acid profile and ammonia N concentration in the rumen; format: in vivo, sheep
[3] = test system: methanogenic archaea (mcrA gene); format: in vivo, sheep
[4] = test system: methane emissions by sheep; format: in vivo
[5] = test system: total bacteria (16S rRNA); format: in vivo, sheep
[6] = test system: methane production of dairy cows; design: species or system Holstein X Friesian dairy cows; conditions: in vivo
[7] = rumen of sheep, 100 mg per animal and day
[8] = rumen of sheep, 18S rRNA qPCR, 100 mg per animal and day
[9] = rumen of sheep, samples of days 29 and 30, 100 mg per animal and day
[10] = rumen of sheep, mcrA gene qPCR, 100 mg per animal and day
[11] = sheep, 100 mg per animal and day via ruminal cannula, day 14
[12] = sheep, 100 mg per animal and day via ruminal cannula, day 29
[13] = sheep, 100 mg per animal and day via ruminal cannula, day 30
[14] = sheep, 100 mg per animal and day via ruminal cannula, days 29-30 pooled
[15] = rumen of sheep, 16S rRNA qPCR, 100 mg per animal and day
[16] = 8 h, comparative example, 0.1% DM, average of two experiments

O=[N+]([O-])OCC(CCc1ccccc1)O[N+](=O)[O-] (racemic) [Compound 2, rac-4-Phenylbutane-1,2-diyl dinitrate]
inhibition at 0.5 % ([1]; 8 h): 4% | inhibition at 2 % ([1]; 8 h): 10%

CCOC(=O)CCO[N+](=O)[O-] [Additive 1, ethyl-3-nitrooxypropionate, reference compound]
Total protozoa ΔCt (relative abundance in relation to total bacteria) (protozoa (18S rRNA); [7]): 1.58 | Total protozoa (protozoa (18S rRNA); [8]): 1.87 * 10^10 copy gene numbers/g fresh matter | Total protozoa log 10 (protozoa (18S rRNA); [8]): 10.2 log copy gene numbers/g fresh matter | Acetate [2, 9]: 67.5^b mol/100 mol | Butirate [2, 9]: 2.05 mol/100 mol | C2/C3 (acetate to propionate ratio) [2, 9]: 4.09^a | Propionate [2, 9]: 16.6^a mol/100 mol | Total (volatile fatty acids) [2, 9]: 58.2 | Valerate [2, 9]: 1.94 mol/100 mol | iso-butirate [2, 9]: 10.1 mol/100 mol | iso-valerate [2, 9]: 1.79 mol/100 mol | Archaea ΔCt (relative abundance in relation to total bacteria) [3, 7]: 0.022 | Archaea [3, 10]: 2.86 * 10^8 copy gene numbers/g fresh matter | Archaea log 10 [3, 10]: 8.45 log copy gene numbers/g fresh matter | CH4 l, day [4, 11]: 21.9 l, day | CH4 l/kg intake [4, 11]: 25.6 l/kg intake | CH4 l, day [4, 12]: 20.9 l, day | CH4 l/kg intake [4, 12]: 21.7 l/kg intake | CH4 l, day [4, 13]: 21.8 l, day | CH4 l/kg intake [4, 13]: 23.2 l/kg intake | CH4 l, day [4, 14]: 21.5 l, day | CH4 l/kg intake [4, 14]: 22.6 l/kg intake | reduction of methane emissions (liters per kg of fresh matter intake) against the control ([4]; sheep, 100 mg per animal and day, day 14): 14% | Total bacteria [5, 15]: 9.08 * 10^10 copy gene numbers/g fresh matter | Total bacteria log 10 [5, 15]: 10.9 log copy gene numbers/g fresh matter

O=[N+]([O-])OCCCO [Compound 1, 3-Nitrooxypropanol]
CH4, L/d [6]: 555 L/day and 536 L/day | CH4, L/kg DMI [6]: 29.9 L/kg DMI and 29.2 L/kg DMI | CH4, g/d [6]: 398 g/day and 384 g/day | Total protozoa (protozoa (18S rRNA); in vivo): 2.51 * 10^10 copy gene numbers/g fresh matter | Total protozoa log 10 (protozoa (18S rRNA); in vivo): 10.2 log copy gene numbers/g fresh matter | Total protozoa ΔCt (relative abundance in relation to total bacteria) (protozoa (18S rRNA); in vivo): 1.55 | Acetate ([2]; in vivo): 64.5^a mol/100 mol | Butirate ([2]; in vivo): 2.11 mol/100 mol | C2/C3 (acetate to propionate ratio) ([2]; in vivo): 3.89^a | Propionate ([2]; in vivo): 17.5^b mol/100 mol | Total (volatile fatty acids) ([2]; in vivo): 57.1 | Valerate ([2]; in vivo): 1.82 mol/100 mol | iso-valerate ([2]; in vivo): 1.82 mol/100 mol | Archaea ([3]; in vivo): 2.86 * 10^8 copy gene numbers/g fresh matter | Archaea log 10 ([3]; in vivo): 8.34 log copy gene numbers/g fresh matter | Archaea ΔCt (relative abundance in relation to total bacteria) ([3]; in vivo): 0.020 | CH4 l, day ([4]; in vivo): 18.3 l, day and 19.7 l, day and 19.1 l, day and 20.0 l, day | CH4 l/kg intake ([4]; in vivo): 22.5 and 19.6 and 25.6 and 23.1 | reduction of methane emissions (liters per kg of fresh matter intake) against the control ([4]; in vivo): 23% | Total bacteria ([5]; in vivo): 9.74 * 10^10 copy gene numbers/g fresh matter | Total bacteria log 10 ([5]; in vivo): 11.0 log copy gene numbers/g fresh matter | inhibition at 0.005 % ([1]; 8 h): 20% | inhibition at 0.01 % ([1]; 8 h): 79% | inhibition at 0.05 % ([1]; 8 h): 100% | inhibition at 0.1 % ([1]; 8 h): 100% | inhibition at 0.5 % ([1]; 8 h): 100% | inhibition at 2 % ([1]; 8 h): 100%

CCNS(=O)(=O)CCCO[N+](=O)[O-] [Compound 4, N-Ethyl-3-nitrooxy-propionic sulfonyl amide]
inhibition at 0.05 % ([1]; 8 h): 10% | inhibition at 0.1 % ([1]; 8 h): 24% | inhibition at 0.5 % ([1]; 8 h): 99% | inhibition at 2 % ([1]; 8 h): 99%

CCC(=O)OCCCO[N+](=O)[O-] [Compound 7, 3-Nitrooxy-propyl propionate]
inhibition at 0.005 % ([1]; 8 h): 6% | inhibition at 0.01 % ([1]; 8 h): 21% | inhibition at 0.05 % ([1]; 8 h): 100% | inhibition at 0.1 % ([1]; 8 h): 100%

O=C(OCCCO[N+](=O)[O-])c1ccccc1 [Compound 11, 3-Nitrooxy-propyl benzoate]
inhibition at 0.01 % ([1]; 8 h): 11% | inhibition at 0.1 % ([1]; 8 h): 99% | inhibition at 1 % ([1]; 8 h): 99%

CCCCCC(=O)OCCCO[N+](=O)[O-] [Compound 12, 3-Nitrooxy-propyl hexanoate]
inhibition at 0.01 % ([1]; 8 h): 42% | inhibition at 0.1 % ([1]; 8 h): 99% | inhibition at 1 % ([1]; 8 h): 98%

O=[N+]([O-])OCc1ccccc1 [Compound 14, Benzylnitrate]
inhibition at 0.05 % ([1]; 8 h): 3% | inhibition at 0.1 % ([1]; 8 h): 37% | inhibition at 0.5 % ([1]; 8 h): 100% | inhibition at 2 % ([1]; 8 h): 100%

O=C(NCCO[N+](=O)[O-])c1cccnc1 [Compound 16, N-[2-(Nitrooxy)ethyl]-3-pyridinecarboxamide]
inhibition at 1 % ([1]; 1% DM, reduction in methane vs control, 8 hours at 39° C., average of two experiments): 100%

O=[N+]([O-])[O-].[Na+] [Na NO3, reference compound]
effect on methanogenesis (%) ([1]; comparative example, 0.5% DM, average of two experiments): 2% | effect on methanogenesis (%) ([1]; comparative example, 2% DM, average of two experiments): 23%

O=[N+]([O-])CCCO [reference compound]
inhibition at 0.1 % [1, 16]: 2%

COCCCO [reference compound]
inhibition at 0.1 % [1, 16]: 8%

CCOC(=O)CCO [reference compound]
inhibition at 0.1 % [1, 16]: 6%
